Columns and labels:
[1] = tested on: HeLa human cervical tumour cells; assay: Proliferation assay (crystal violet), HeLa; type: cell-based; settings: read-out: Inhibition of HeLa cell proliferation
[2] = tested on: Caco-2 human colorectal carcinoma; assay: Proliferation assay (crystal violet), Caco-2; type: cell-based; settings: CACO-2 cells, read-out: Inhibition of CACO-2 cell proliferation
[3] = tested on: DU 145, hormone-independent human prostate carcinoma cells; assay: Proliferation assay (crystal violet), DU 145; type: cell-based; settings: DU145 cells, read-out: Inhibition of DU145 cell proliferation
[4] = tested on: NCI-H460, human non-small cell lung carcinoma cells; assay: Proliferation assay (crystal violet), NCI-H460; type: cell-based; settings: read-out: Inhibition of H460 cell proliferation (activity range)
Description: Cultivated tumour cells (NCI-H460, human non-small cell lung carcinoma cells, ATCC HTB-177; DU 145, hormone-independent human prostate carcinoma cells, ATCC HTB-81; HeLa-MaTu, human cervical carcinoma cells, EPO-GmbH, Berlin; HeLa-MaTu-ADR, multidrug-resistant human cervical carcinoma cells, EPO-GmbH, Berlin; HeLa human cervical tumour cells, ATCC CCL-2; Caco-2 human colorectal carcinoma, ATCC HTB-37; B16F10 mouse melanoma cells, ATCC CRL-6475) were plated at a density of 5000 cells/well (DU145, HeLa-MaTu-ADR), 3000 cells/well (NCI-H460, HeLa-MaTu, HeLa), 1500 cells/well (Caco-2), or 1000 cells/well (B16F10) in a 96-well multititer plate in 200 μL of their respective growth medium supplemented 10% fetal calf serum. After 24 hours, the cells of one plate (zero-point plate) were stained with crystal violet (see below), while the medium of the other plates was replaced by fresh culture medium (200 μl), to which the test substances were added in various concentrations (0 μM, as well as in the range of 0.001-10 μM; the final concentration of the solvent dimethyl sulfoxide was 0.5%). The cells were incubated for 4 days in the presence of test substances. Cell proliferation was determined by staining the cells with crystal violet: the cells were fixed by adding 20 μl/measuring point of an 11% glutaric aldehyde solution for 15 minutes at room temperature. After three washing cycles of the fixed cells with water, the plates were dried at room temperature. The cells were stained by adding 100 μl/measuring point of a 0.1% crystal violet solution (pH 3.0). After three washing cycles of the stained cells with water, the plates were dried at room temperature. The dye was dissolved by adding 100 μl/measuring point of a 10% acetic acid solution. The extinction was determined by photometry at a wavelength of 595 nm. The change of cell number, in percent, was calculated by normalization of the measured values to the extinction values of the zero-point plate (=0%) and the extinction of the untreated (0 μm) cells (=100%). The IC50 values were determined by means of a 4 parameter fit.

CDK2/CycE = target: T1, CDK2/CycE (Homo sapiens, UniProt P24941); assay: CDK2/CycE kinase assay (TR-FRET); type: biochemical; settings: Method 2, 10 μM ATP
T1 construct: GST; purchased ProQinase GmbH (Freiburg, Germany); host or cells: insect cells (Sf9)
Procedure, shortened: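 TR-FRET read-out: emission ratio 665/620 nm via anti-RB(pSer807/pSer811) antibody, Eu-anti-mouse IgG and streptavidin-XL665. Kinase reaction: insect-cell GST-CDK2/CycE, compound pre-bound 15 min, 10 μM ATP final, 0.75 μM biotin-peptide, 25 min, 22 °C, pH 8.0.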

Structure (SMILES) | IC50 [1] | IC50 [2] | IC50 [3] | IC50 [4] | IC50 (CDK2/CycE)
CCCCOc1cc(F)ccc1-c1ncnc(Nc2cccc(CS(C)(=O)=O)c2)n1 [Example 44, 4-(2-Butoxy-4-fluorophenyl)-N-{3-[(methylsulfonyl)-methyl]phenyl}-1,3,5-triazin-2-amine] | 340 nM | 1000 nM | 520 nM | 440 nM | 910 nM
CS(=O)(=O)Cc1cccc(Nc2ncnc(-c3cccc4c3OCCO4)n2)c1 [Example 18, 4-(2,3-Dihydro-1,4-benzodioxin-5-yl)-N-{3-[(methylsulfonyl)methyl]phenyl}-1,3,5-triazin-2-amine] | 530 nM | 690 nM | 530 nM | 730 nM | 840 nM
CS(=O)(=O)Cc1cccc(Nc2ncnc(-c3cccc4c3OCCC4)n2)c1 [Example 12, 4-(3,4-Dihydro-2H-chromen-8-yl)-N-{3-[(methylsulfonyl)methyl]phenyl}-1,3,5-triazin-2-amine] | 340 nM | 390 nM | 320 nM | 410 nM | 510 nM
CS(=O)(=O)Cc1cccc(Nc2ncnc(-c3ccc(F)cc3OCC3CC3)n2)c1 [Example 55, 4-[2-(Cyclopropylmethoxy)-4-fluorophenyl]-N-{3-[(methylsulfonyl)methyl]phenyl}-1,3,5-triazin-2-amine] | 840 nM | 400 nM | 570 nM | 490 nM | 1400 nM
Cc1cc(COc2cc(F)ccc2-c2ncnc(Nc3cccc(CS(C)(=O)=O)c3)n2)ccn1 [Example 87, 4-{4-Fluoro-2-[(2-methylpyridin-4-yl)methoxy]-phenyl}-N-{3-[(methylsulfonyl)methyl]phenyl}-1,3,5-triazin-2-amine] | 320 nM | 730 nM | 300 nM | 340 nM | 370 nM
COc1cc(F)ccc1-c1ncnc(Nc2cccc(CS(=O)(=O)C3CCCCC3)c2)n1 [Example 9, N-{3-[(Cyclohexylsulfonyl)methyl]phenyl}-4-(4-fluoro-2-methoxyphenyl)-1,3,5-triazin-2-amine] | 1000 nM | 580 nM | 840 nM | 690 nM | 560 nM
CS(=O)(=O)Cc1cccc(Nc2ncnc(-c3ccc(F)cc3OCCCC(F)(F)F)n2)c1 [Example 59, 4-[4-Fluoro-2-(4,4,4-trifluorobutoxy)phenyl]-N-{3-[(methylsulfonyl)methyl]phenyl}-1,3,5-triazin-2-amine] | 470 nM | 570 nM | 220 nM | 350 nM | 710 nM
CS(=O)(=O)Cc1cccc(Nc2ncnc(-c3ccc(F)cc3OCCF)n2)c1 [Example 61, 4-[4-Fluoro-2-(2-fluoroethoxy)phenyl]-N-{3-[(methylsulfonyl)methyl]phenyl}-1,3,5-triazin-2-amine] | 590 nM | 1100 nM | 480 nM | 610 nM | 640 nM
CS(=O)(=O)Cc1cccc(Nc2ncnc(-c3ccc(F)cc3OCc3cccc(Cl)c3)n2)c1 [Example 85, 4-{2-[(3-Chlorobenzyl)oxy]-4-fluorophenyl}-N-{3-[(methylsulfonyl)methyl]phenyl}-1,3,5-triazin-2-amine] | 320 nM | 560 nM | 410 nM | 360 nM | 260 nM
CS(=O)(=O)Cc1cccc(Nc2ncnc(-c3ccc(F)cc3OCc3ccc(C#N)cc3)n2)c1 [Example 90, 4-({5-Fluoro-2-[4-({3-[(methylsulfonyl)methyl]phenyl}amino)-1,3,5-triazin-2-yl]phenoxy}methyl)-benzonitrile] | 110 nM | 310 nM | 280 nM | 60 nM | 680 nM
CS(=O)(=O)Cc1cccc(Nc2ncnc(-c3ccc(F)cc3OCc3ccncc3)n2)c1 [Example 89, 4-[4-Fluoro-2-(pyridin-4-ylmethoxy)phenyl]-N-{3-[(methylsulfonyl)methyl]phenyl}-1,3,5-triazin-2-amine] | 110 nM | 310 nM | 180 nM | 170 nM | 400 nM
CS(=O)(=O)Cc1cccc(Nc2ncnc(-c3ccccc3OCc3cccc(Cl)c3)n2)c1 [Example 28, 4-{2-[(3-Chlorobenzyl)oxy]phenyl}-N-{3-[(methylsulfonyl)methyl]phenyl}-1,3,5-triazin-2-amine] | 360 nM | 320 nM | 420 nM | 370 nM | 500 nM

Reference: US8916557B2, “Substituted 4-Aryl-N-phenyl-1,3,5-triazin-2-amines” (Bayer Intellectual Property GmbH, priority 2011, dated 2014)
